The values that follow are results of earlier work, collected in patent US8853275B2, “Concurrent therapy regime/regimen for the treatment of acne related diseases” (Galderma Research & Development, priority 2008, dated 2014).

For this series the following is noted: when combined with BPO; unlike tretinoin.

The structures appear in SMILES notation.

`COc1ccc(-c2ccc3cc(C(=O)O)ccc3c2)cc1C12CC3CC(CC(C3)C1)C2` [Adapalene, 6-[3-(1-adamantyl)-4-methoxyphenyl]-2-naphtoïc acid]: the “Stability in the presence of light” value is “stable in the presence of light”.
